The source of these data is patent publication US8663703B2, “Drug microparticles, processes of preparing them and a drug delivery vehicle comprising them” (Teva Pharmaceutical Industries, Ltd., priority 2002, dated 2014).

This series is described as follows: Solubility of selected drugs in menthol melt. It counts as physicochemical. The protocol: The following general procedure was repeated with several drugs with menthol carrier.
Menthol (10 grams) was melted on a stirring hot plate with magnetic stirring, then heated to the desired temperature indicated in Table 1. The desired drug was added in small increments (0.1 grams) and stirred to obtain a clear solution. The desired drug was added in increments until no more drug dissolved in the menthol.

`CC[C@H]1OC(=O)[C@H](C)[C@@H](O[C@H]2C[C@@](C)(OC)[C@@H](O)[C@H](C)O2)[C@H](C)[C@@H](O[C@@H]2O[C@H](C)C[C@H](N(C)C)[C@H]2O)[C@](C)(O)C[C@@H](C)CN(C)[C@H](C)[C@@H](O)[C@]1(C)O` [Azithromycin] registered a Solubility in menthol (menthol melt, 63 °C) of 40.0 % w/w.

In the case of `CCC(C)n1ncn(-c2ccc(N3CCN(c4ccc(OCC5COC(Cn6cncn6)(c6ccc(Cl)cc6Cl)O5)cc4)CC3)cc2)c1=O` (stereo not shown) [Itraconazole], the Solubility in menthol (in menthol at 60° C. (text of Example 6)) is listed as 1% and the Solubility in menthol (menthol melt, 61 °C) is reported as 1.0 % w/w.

Where the note is “menthol melt, 43 °C”, `O=C(O)c1ccccc1O` [Salicylic acid] registered a Solubility in menthol of 16.0 % w/w.
